Results: US9029384B2, “Phosphatidylinositol 3-kinase inhibitors” (Gilead Calistoga LLC, priority 2012, dated 2015)
Where two headings read alike, the source gives them in different places.

What was measured:
[1] = test system: basophils; test: Basophil activation in human whole blood (Flow2 CAST kit, CD63 positive cells); type: cell-based; details: basophils activated with anti-FcεRI mAb or fMLP, geometric mean
Protocol: Effect on basophil activation was measured in human whole blood using the Flow2 CAST® kit (Buhlmann Laboratories AG, Baselstrasse, Switzerland) following the protocol provided by the manufacturer with minor modifications. Human whole blood was collected into K2-EDTA venipuncture tubes. Whole blood samples were treated with either DMSO (0.3% final) or a serial dilution of compounds in DMSO for 60 minutes at 37° C. Basophils were then activated either with anti-FcεRI mAb or with fMLP. To activate basophils using the anti-FcεRI mAb; 50 μl of whole blood was mixed with 110 μl of stimulation buffer (B-BAT-STB) and 20 μl of anti-FcεRI (B-BAT-STCON). To activate basophils with fMLP; 50 μl of whole blood was mixed with 80 μl of stimulation buffer (B-BAT-STB) and 50 μl of fMLP (B-CCR-FMLP). Stimulation buffer was used as a negative control. 20 μl of the staining reagent (combination of anti-human CD63-FITC and anti-human CCR3-PE mAbs) was then added to each tube. […] Subsequently, erythrocytes were lysed and fixed by the addition of 2 ml of lysing solution (B-BAT-LYR) for 10 min at room temperature. Cells were pelleted by centrifugation at 1200 rpm for 10 min at room temperature in a swing-out rotor. Supernatant was aspirated and cell pellet resuspended in 400 μl of wash buffer. Flow cytometric analysis of the basophil activation was performed on a FC500MPL flow cytometer (Beckman Coulter Inc., Fullerton, Calif.). CCR3-staining and side scatter were applied to gate at least 200 basophils that expressed a high density of CCR3. The percent CD63 positive cells within the gated basophil population were determined in different treatment groups and normalized to the vehicle control (0.3% DMSO) with anti-FcεRI mAb of fMLP stimulus as 100%. Final compound concentration was adjusted to correct for dilution effect of added reagents. The EC50 values were calculated from the analysis of the dose-response curves to a four-parameter equation. All EC50 values represent geometric mean values and are reported in units of nM.

[2] = biological target: T1, PI3Kδ (Homo sapiens, UniProt O00329); test: Enzymatic activity of PI3K isoforms, TR-FRET assay (PIP3 formation); type: biochemical; details: read-out: IC50
T1 construct: made in house
Excerpt: Enzymatic Activity of PI3K Isoforms
The TR-FRET assay was used to monitor formation of the product 3,4,5-inositol triphosphate molecule (PIP3) as it competed with fluorescently labeled PIP3 for binding to the GRP-1 pleckstrin homology domain protein. An increase in […] product results in a decrease in TR-FRET signal as the labeled fluorophore is displaced from the GRP-1 protein binding site.
Class I PI3K isoforms were expressed and purified as heterodimeric recombinant proteins. All assay reagents and buffers for the TR-FRET assay were purchased from Millipore. […] After an assay reaction time of 30 minutes at 25° C., reactions were terminated with a final concentration of 10 mM EDTA, 10 nM labeled-PIP3, and 35 nM Europium labeled GRP-1 detector protein before reading TR-FRET on an Envision plate reader (Ex: 340 nm; Em: 615/665 nm; 100 μs delay and 500 μs read window).
Data are normalized based on a positive (1 uM wortmanin) and negative (DMSO) controls. The α, β, δ, and γ IC50 values were calculated from the fit of the dose-response curves to a four-parameter equation. IC50 are reported in units of nM.
IC50 values were obtained for all PI3K isoforms (α, β, δ, and γ), and Table 2 summarizes the IC50 data collected for PI3Kδ in this Example B1.

[3] = PI3Kδ, TR-FRET, 2×Km ATP, 10 μM PIP2

T1 sequence (O00329 whole entry, canonical isoform): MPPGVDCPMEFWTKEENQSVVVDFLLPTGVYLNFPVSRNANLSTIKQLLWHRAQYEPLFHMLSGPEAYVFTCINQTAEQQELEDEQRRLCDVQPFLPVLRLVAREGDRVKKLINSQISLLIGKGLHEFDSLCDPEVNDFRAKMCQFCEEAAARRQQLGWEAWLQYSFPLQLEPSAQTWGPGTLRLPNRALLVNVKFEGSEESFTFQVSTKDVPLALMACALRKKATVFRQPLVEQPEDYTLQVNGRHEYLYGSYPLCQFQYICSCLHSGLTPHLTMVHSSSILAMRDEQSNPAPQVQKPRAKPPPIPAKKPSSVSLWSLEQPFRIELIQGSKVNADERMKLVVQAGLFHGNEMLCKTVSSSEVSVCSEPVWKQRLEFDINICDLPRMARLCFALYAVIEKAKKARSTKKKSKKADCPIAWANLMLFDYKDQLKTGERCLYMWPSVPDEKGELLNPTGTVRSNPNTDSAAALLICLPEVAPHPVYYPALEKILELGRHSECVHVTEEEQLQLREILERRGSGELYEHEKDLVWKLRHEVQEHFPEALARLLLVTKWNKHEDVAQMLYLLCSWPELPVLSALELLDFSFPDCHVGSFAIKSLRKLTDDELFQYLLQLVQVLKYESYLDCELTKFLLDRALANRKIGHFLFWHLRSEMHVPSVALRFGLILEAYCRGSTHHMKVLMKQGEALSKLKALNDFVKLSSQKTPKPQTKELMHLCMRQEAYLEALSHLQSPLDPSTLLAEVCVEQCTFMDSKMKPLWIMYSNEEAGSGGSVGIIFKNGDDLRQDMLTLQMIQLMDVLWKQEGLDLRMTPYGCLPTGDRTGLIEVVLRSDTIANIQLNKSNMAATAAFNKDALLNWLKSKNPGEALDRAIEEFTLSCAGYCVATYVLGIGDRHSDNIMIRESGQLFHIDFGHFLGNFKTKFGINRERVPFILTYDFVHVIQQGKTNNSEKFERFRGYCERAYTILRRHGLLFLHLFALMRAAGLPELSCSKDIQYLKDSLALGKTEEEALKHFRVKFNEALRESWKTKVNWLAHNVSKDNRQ
T1 sequence (P27986 whole entry partner, canonical isoform): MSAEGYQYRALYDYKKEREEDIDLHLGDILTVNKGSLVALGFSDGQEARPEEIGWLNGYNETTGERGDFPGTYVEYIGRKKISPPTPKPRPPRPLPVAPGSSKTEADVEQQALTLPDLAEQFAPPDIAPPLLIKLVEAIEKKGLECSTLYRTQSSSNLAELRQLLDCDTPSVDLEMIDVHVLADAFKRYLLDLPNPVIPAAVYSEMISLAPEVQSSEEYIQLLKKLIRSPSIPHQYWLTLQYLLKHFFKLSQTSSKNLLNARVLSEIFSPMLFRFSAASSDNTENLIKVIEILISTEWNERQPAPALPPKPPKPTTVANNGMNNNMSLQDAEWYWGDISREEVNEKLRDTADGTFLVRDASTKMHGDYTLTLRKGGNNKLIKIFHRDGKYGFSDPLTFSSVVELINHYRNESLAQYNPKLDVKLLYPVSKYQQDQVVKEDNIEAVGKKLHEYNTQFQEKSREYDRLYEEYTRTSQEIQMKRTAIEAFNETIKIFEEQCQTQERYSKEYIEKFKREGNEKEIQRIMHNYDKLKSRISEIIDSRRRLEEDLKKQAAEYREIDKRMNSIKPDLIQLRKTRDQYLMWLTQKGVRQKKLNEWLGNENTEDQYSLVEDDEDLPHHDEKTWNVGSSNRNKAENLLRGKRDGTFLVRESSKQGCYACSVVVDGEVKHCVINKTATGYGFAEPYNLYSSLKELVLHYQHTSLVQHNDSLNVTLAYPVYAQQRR

| SMILES | EC50 ([1]; Homo sapiens) | IC50 [2, 3] | EC50 [1] | IC50 [2] |
| --- | --- | --- | --- | --- |
| CC(Nc1nc(N)nc(N)c1C#N)c1nc2cccc(S(C)(=O)=O)c2c(=O)n1-c1cc(F)cc(F)c1 (single isomer, unassigned) [Compound 96a] | 10 to 50 nM | 1 to 10 nM |  |  |
| COc1cccc2nc(C(C)Nc3nc(N)nc(N)c3C#N)n(-c3ccccc3)c(=O)c12 (single isomer, unassigned) [Compound 111a] | > 50 nM | 10 to 50 nM |  |  |
| CC(Nc1nc(N)nc(N)c1C#N)c1nc2cccc(Cl)c2c(=O)n1-c1cc(Cl)cc(C(F)F)c1 (single isomer, unassigned) [Compound 115a] | 10 to 50 nM | 1 to 10 nM |  |  |
| CC(Nc1nc(N)nc(N)c1C#N)c1nc2cccc(S(C)(=O)=O)c2c(=O)n1-c1cccc(C(F)F)c1 (single isomer, unassigned) [Compound 116a] | > 50 nM | 1 to 10 nM |  |  |
| CC(Nc1nc(N)nc(N)c1C#N)c1nc2cccc(S(C)(=O)=O)c2c(=O)n1-c1cccc(F)c1 (single isomer, unassigned) [Compound 117a] | 10 to 50 nM | 1 to 10 nM |  |  |
| CC(Nc1nc(N)nc(N)c1C#N)c1nc2cccc(Cl)c2c(=O)n1-c1cc(C(F)F)cc(C(F)F)c1 (single isomer, unassigned) [Compound 119a] | 10 to 50 nM | 1 to 10 nM |  |  |
| CC(Nc1nc(N)nc(N)c1C#N)c1nc2c(F)ccc(C#N)c2c(=O)n1-c1ccccc1 (single isomer, unassigned) [Compound 124a] | 1 to 10 nM | 1 to 10 nM |  |  |
| CC(Nc1nc(N)nc(N)c1C#N)c1nc2c(F)ccc(C#N)c2c(=O)n1-c1cc(F)cc(F)c1 (single isomer, unassigned) [Compound 125a] | 10 to 50 nM | 10 to 50 nM |  |  |
| CC(Nc1nc(N)nc(N)c1C#N)c1nc2cccc(Br)c2c(=O)n1-c1ccccc1 (single isomer, unassigned) [Compound 129a] | < 1 nM | < 1 nM |  |  |
| CC(Nc1nc(N)nc(N)c1C#N)c1nc2cccc(C#N)c2c(=O)n1-c1cccc(F)c1 (single isomer, unassigned) [Compound 131a] | 1 to 10 nM | 1 to 10 nM |  |  |
| CC(Nc1nc(N)nc(N)c1C#N)c1nc2cccc(Cl)c2c(=O)n1-c1cc(C(F)F)cc(C(F)F)c1 (single isomer, unassigned) [Compound 137a] |  | 1 to 10 nM | 10 to 50 nM |  |
| CC(Nc1nc(N)nc(N)c1C#N)c1nc2ccc(F)c(Cl)c2c(=O)n1-c1cc(F)cc(C(F)F)c1 (single isomer, unassigned) [Compound 141a] | 10 to 50 nM | 10 to 50 nM |  |  |
| CC(Nc1nc(N)nc(N)c1C#N)c1nc2cccc(S(C)(=O)=O)c2c(=O)n1-c1ccccc1F (single isomer, unassigned) [Compound 142a-1] | 10 to 50 nM | 1 to 10 nM |  |  |
| CC(Nc1nc(N)nc(N)c1C#N)c1nc2cccc(S(C)(=O)=O)c2c(=O)n1-c1ccccc1F (single isomer, unassigned) [Compound 142a-2] |  | 1 to 10 nM | 10 to 50 nM |  |
| CC(Nc1nc(N)nc(N)c1C#N)c1nc2cccc(S(C)(=O)=O)c2c(=O)n1-c1c(F)cccc1F (single isomer, unassigned) [Compound 146a] | > 50 nM | 1 to 10 nM |  |  |
| CC(Nc1nc(N)nc(N)c1C#N)c1nc2c(F)ccc(F)c2c(=O)n1-c1cccc(F)c1 (single isomer, unassigned) [Compound 148a] | < 1 nM | 1 to 10 nM |  |  |
| CC(Nc1nc(N)nc(N)c1Cl)c1nc2cccc(S(C)(=O)=O)c2c(=O)n1-c1cccc(F)c1 (single isomer, unassigned) [Compound 153a] | 10 to 50 nM | 1 to 10 nM |  |  |

| SMILES | EC50 ([1]; Homo sapiens) | IC50 [2, 3] | EC50 [1] | IC50 [2] |
| --- | --- | --- | --- | --- |
| COc1cccc2c(=O)n(-c3ccccc3)c(C(C)Nc3nc(N)nc(N)c3C#N)nc12 (single isomer, unassigned) [Compound 156a] | 10 to 50 nM | > 50 nM |  |  |
| CC(Nc1nc(N)nc(N)c1C#N)c1nc2c(C#N)cc(F)cc2c(=O)n1-c1cc(F)cc(F)c1 (single isomer, unassigned) [Compound 161a] | 10 to 50 nM | 10 to 50 nM |  |  |
| CC(C)CC(Nc1nc(N)nc(N)c1C#N)c1nc2cccc(Cl)c2c(=O)n1-c1cccc(C#N)c1 (single isomer, unassigned) [Compound 167a] | > 50 nM | 10 to 50 nM |  |  |
| CC(C)CC(Nc1nc(N)nc(N)c1C#N)c1nc2cccc(Cl)c2c(=O)n1-c1cccc(F)c1 (single isomer, unassigned) [Compound 168a] | > 50 nM | 1 to 10 nM |  |  |
| COc1cc(-n2c(C(C)Nc3nc(N)nc(N)c3C#N)nc3cccc(Cl)c3c2=O)ccc1C (single isomer, unassigned) [Compound 184a] | > 50 nM | 10 to 50 nM |  |  |
| COc1cc(-n2c(C(C)Nc3nc(N)nc(N)c3C#N)nc3cccc(Cl)c3c2=O)ccc1F (single isomer, unassigned) [Compound 186a] | 10 to 50 nM | 1 to 10 nM |  |  |
| COc1ccc(C)c(-n2c(C(C)Nc3nc(N)nc(N)c3C#N)nc3cccc(Cl)c3c2=O)c1 (single isomer, unassigned) [Compound 187a-1] |  | 1 to 10 nM | 10 to 50 nM |  |
| COc1ccc(C)c(-n2c(C(C)Nc3nc(N)nc(N)c3C#N)nc3cccc(Cl)c3c2=O)c1 (single isomer, unassigned) [Compound 187a-2] |  | 1 to 10 nM | 1 to 10 nM |  |
| Cc1ccc(C(F)F)cc1-n1c(C(C)Nc2nc(N)nc(N)c2C#N)nc2cccc(Cl)c2c1=O (single isomer, unassigned) [Compound 188a-1] |  | 1 to 10 nM | 10 to 50 nM |  |
| Cc1c(C(F)F)cccc1-n1c(C(C)Nc2nc(N)nc(N)c2C#N)nc2cccc(Cl)c2c1=O (single isomer, unassigned) [Compound 189a-1] |  | 10 to 50 nM | > 50 nM |  |
| Cc1c(C(F)F)cccc1-n1c(C(C)Nc2nc(N)nc(N)c2C#N)nc2cccc(Cl)c2c1=O (single isomer, unassigned) [Compound 189a-2] |  | < 1 nM | 1 to 10 nM |  |
| Cc1ccc(C)c(-n2c(C(C)Nc3nc(N)nc(N)c3C#N)nc3cccc(Cl)c3c2=O)c1 (single isomer, unassigned) [Compound 191a-1] |  | 1 to 10 nM | 10 to 50 nM |  |
| Cc1ccc(C)c(-n2c(C(C)Nc3nc(N)nc(N)c3C#N)nc3cccc(Cl)c3c2=O)c1 (single isomer, unassigned) [Compound 191a-2] |  | 1 to 10 nM | 1 to 10 nM |  |
| CC(Nc1nc(N)nc(N)c1F)c1nc2cccc(Cl)c2c(=O)n1-c1ccccc1 (single isomer, unassigned) [Compound 194a] |  | > 50 nM | > 50 nM |  |
| CC(Nc1nc(N)nc(N)c1Cl)c1cc2cccc(Cl)c2c(=O)n1-c1ccccc1 (single isomer, unassigned) [Compound 195a] |  |  | 1 to 10 nM | < 1 nM |
| CC(Nc1nc(N)nc(N)c1C#N)c1cc2cccc(Cl)c2c(=O)n1-c1ccccc1 (single isomer, unassigned) [Compound 196a] |  |  | < 1 nM | < 1 nM |
